Data published in ChEMBL document CHEMBL4256941, “Histone demethylase inhibitors” (2016).

Legend:
[1] = molecular target: T1, Lysine-specific demethylase 4C (Homo sapiens, UniProt Q9H3R0); experiment: Inhibition of recombinant human N-terminal GST-tagged JMJD2C (2 to 372 residues) expressed in baculovirus infected sf9 cells using H3K9me3-biotin peptide as substrate after 30 mins in presence of alpha-ketoglutaric acid by LANCE TR-FRET assay
T1 sequence (Q9H3R0 whole entry): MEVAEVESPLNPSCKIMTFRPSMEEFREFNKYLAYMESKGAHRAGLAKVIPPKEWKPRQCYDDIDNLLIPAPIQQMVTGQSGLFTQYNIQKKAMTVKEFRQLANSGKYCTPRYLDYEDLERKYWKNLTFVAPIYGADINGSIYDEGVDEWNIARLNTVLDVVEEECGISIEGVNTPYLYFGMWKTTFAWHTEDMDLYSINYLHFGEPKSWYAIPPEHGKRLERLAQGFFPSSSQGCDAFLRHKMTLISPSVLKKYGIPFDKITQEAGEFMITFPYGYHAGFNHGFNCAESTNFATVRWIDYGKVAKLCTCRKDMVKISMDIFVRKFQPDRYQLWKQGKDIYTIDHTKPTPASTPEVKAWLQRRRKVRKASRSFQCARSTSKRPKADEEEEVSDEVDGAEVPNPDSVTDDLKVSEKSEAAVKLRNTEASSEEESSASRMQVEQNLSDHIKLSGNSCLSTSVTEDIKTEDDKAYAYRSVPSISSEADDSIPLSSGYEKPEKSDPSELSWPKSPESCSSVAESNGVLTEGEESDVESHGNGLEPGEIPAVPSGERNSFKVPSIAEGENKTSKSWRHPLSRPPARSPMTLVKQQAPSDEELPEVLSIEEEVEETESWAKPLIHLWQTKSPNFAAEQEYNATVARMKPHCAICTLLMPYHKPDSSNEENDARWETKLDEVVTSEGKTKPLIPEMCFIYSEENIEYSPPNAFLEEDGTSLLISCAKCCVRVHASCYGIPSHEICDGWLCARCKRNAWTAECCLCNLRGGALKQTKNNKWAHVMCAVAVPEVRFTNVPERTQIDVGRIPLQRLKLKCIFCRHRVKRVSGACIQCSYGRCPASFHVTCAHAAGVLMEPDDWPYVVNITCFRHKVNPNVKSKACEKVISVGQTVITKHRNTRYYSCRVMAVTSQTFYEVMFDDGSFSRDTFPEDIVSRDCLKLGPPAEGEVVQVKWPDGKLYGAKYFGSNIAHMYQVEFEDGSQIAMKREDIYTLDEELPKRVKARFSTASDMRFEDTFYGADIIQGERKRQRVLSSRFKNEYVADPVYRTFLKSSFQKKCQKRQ

[2] = molecular target: Lysine-specific demethylase 5A (Homo sapiens, UniProt P29375); experiment: Inhibition of recombinant human C-terminal FLAG-tagged JARID1A (1 to 1090 residues) expressed in baculovirus infected sf9 cells using H3K4me3-biotin peptide as substrate after 30 mins in presence of alpha-ketoglutaric acid by LANCE TR-FRET assay
[3] = molecular target: Lysine-specific demethylase 5B (Homo sapiens, UniProt Q9UGL1); experiment: Inhibition of recombinant human N-terminal His-FLAG tagged JARID1B (2 to 751 residues) expressed in baculovirus infected sf9 cells using H3K4me3-biotin peptide as substrate after 30 mins in presence of alpha-ketoglutaric acid by LANCE TR-FRET assay
Chain of Lysine-specific demethylase 5B (Q9UGL1 whole entry, the tested form may be a part): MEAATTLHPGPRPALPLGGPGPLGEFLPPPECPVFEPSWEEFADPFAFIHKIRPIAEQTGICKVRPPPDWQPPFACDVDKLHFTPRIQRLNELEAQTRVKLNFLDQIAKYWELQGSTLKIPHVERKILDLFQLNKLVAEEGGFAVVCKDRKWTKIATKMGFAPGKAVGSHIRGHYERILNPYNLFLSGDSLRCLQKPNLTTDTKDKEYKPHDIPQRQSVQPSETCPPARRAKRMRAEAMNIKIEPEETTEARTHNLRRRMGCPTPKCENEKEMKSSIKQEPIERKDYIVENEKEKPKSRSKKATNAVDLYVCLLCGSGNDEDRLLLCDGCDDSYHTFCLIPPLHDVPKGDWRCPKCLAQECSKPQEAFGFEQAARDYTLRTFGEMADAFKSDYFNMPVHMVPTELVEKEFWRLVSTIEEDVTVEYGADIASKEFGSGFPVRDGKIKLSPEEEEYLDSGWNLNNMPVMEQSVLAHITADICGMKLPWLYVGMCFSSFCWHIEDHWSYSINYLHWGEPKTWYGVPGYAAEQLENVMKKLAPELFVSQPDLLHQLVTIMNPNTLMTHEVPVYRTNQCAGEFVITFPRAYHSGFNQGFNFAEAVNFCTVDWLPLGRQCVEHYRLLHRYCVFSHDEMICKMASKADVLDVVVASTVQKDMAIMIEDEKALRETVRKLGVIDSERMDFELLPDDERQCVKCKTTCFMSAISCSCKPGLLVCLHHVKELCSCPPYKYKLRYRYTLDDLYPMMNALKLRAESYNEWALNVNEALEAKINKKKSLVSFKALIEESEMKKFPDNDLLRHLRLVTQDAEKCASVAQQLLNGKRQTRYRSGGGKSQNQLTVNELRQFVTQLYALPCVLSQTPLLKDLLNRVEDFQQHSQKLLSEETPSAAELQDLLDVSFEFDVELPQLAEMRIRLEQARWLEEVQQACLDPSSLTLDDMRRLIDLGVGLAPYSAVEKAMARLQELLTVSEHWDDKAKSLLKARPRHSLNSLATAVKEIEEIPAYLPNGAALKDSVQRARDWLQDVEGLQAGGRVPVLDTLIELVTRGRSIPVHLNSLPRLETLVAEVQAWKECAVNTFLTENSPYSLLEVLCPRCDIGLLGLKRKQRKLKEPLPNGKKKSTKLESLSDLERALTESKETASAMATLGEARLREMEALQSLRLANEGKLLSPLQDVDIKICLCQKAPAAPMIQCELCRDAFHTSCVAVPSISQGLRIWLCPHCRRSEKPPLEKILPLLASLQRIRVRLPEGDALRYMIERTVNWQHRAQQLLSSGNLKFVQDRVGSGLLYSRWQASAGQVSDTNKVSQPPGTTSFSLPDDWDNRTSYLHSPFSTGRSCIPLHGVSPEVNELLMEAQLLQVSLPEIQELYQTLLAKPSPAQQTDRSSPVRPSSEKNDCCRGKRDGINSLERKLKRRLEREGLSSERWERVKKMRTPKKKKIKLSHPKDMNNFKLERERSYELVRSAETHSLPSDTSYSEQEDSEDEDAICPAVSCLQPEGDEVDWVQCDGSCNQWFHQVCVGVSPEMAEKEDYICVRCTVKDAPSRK

Chain of Lysine-specific demethylase 5A (P29375 whole entry, the tested form may be a part): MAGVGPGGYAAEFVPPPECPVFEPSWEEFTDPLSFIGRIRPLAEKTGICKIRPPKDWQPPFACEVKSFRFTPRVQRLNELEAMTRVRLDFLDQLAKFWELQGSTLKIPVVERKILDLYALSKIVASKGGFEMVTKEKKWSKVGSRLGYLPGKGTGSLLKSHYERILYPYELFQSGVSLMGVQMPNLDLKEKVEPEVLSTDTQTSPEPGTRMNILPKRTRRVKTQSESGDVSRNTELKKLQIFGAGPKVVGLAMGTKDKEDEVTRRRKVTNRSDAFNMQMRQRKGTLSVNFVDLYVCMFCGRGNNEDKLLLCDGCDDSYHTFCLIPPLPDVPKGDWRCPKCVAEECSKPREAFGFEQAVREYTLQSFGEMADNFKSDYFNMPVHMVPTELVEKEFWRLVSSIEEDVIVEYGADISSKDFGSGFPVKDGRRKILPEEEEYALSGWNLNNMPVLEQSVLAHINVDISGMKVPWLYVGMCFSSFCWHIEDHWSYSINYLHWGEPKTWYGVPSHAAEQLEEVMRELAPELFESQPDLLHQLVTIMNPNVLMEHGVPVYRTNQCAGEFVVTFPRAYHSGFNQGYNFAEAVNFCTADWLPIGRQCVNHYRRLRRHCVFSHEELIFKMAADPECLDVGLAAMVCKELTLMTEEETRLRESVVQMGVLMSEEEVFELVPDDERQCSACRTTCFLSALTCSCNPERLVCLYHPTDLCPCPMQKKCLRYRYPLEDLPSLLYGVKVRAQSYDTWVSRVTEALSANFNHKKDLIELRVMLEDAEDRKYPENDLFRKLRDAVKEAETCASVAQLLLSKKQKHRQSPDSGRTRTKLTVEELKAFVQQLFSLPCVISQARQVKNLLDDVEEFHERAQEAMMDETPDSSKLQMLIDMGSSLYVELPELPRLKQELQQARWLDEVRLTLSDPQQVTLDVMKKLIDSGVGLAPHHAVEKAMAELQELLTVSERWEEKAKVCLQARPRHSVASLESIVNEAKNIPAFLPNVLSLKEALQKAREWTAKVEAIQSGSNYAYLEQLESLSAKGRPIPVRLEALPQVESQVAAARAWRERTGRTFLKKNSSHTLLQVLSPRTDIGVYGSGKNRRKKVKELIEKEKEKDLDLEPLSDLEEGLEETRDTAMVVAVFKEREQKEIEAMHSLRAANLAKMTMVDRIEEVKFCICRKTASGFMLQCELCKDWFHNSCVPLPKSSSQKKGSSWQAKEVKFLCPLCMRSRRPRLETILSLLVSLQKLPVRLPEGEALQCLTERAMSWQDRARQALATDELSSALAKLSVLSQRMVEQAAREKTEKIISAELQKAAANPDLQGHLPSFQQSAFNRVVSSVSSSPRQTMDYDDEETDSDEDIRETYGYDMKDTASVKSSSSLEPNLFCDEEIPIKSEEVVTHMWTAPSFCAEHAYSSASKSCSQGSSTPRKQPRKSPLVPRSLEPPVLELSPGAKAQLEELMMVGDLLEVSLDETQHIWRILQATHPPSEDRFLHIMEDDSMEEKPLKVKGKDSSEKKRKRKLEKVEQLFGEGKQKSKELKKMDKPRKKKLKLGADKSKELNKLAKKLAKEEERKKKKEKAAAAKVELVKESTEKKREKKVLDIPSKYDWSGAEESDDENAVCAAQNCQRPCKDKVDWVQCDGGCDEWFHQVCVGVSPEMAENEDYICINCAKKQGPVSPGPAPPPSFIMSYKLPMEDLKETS

O=C(O)c1ccnc(-n2nccc2OCc2ccc(F)c(OCc3ccc(F)cc3)c2)c1
IC50 [1]: 0.1 to 1 µM
IC50 [2]: ≤ 0.1 µM
IC50 [3]: ≤ 0.1 µM
